Reference: patent US7667052B2 (Eisai R&D Management Co., Ltd., priority 2003, dated 2010)

Tested on: transcription from VEGF promoter
Assay: VEGF transcription-suppressing activity, VEGF-PLAP reporter in U251/1-8 cell
Format: cell-based
Conditions: Homo sapiens, U-251; U251/1-8 cell, PLAP activity, low oxygen 18 hours; read-out: IC50 values of VEGF transcription-suppressing activity (range given)
Source text: In order to prepare reporter system reflecting transcription from VEGF promoter, VEGF promoter sequence was cloned, and inserted in secretory alkali phosphatase (PLAP) vector to construct reporter vector.
In order to obtain the promoter region of human VEGF, VEGF genome was cloned from phage library. PCR primers having the sequences described in Sequence Numbers 1 and 2 were designed based on VEGF cDNA (GenBank accession number: X62568) and a fragment having about 340 bp was obtained by carrying out PCR. Human genome phage library (Human genomic library, Clontech Co.) was screened using this as a probe to obtain pUC18-VEGFA containing about 5.4 kb of VEGF 5′ flanking region. The pUC18-VEGFA was cleaved by KpnI/NheI, VEGF promoter region of about 2.3 kb obtained was inserted in the multi cloning site KpnI/NheI of secretory alkali phosphatase (PLAP) vector (Goto et al, Mol. Pharmacol., 49, 860-873, 1996), and thus, VEGF-PLAP vector was constructed.
The above-mentioned VEGF-PLAP vector was introduced in the U251 cell cultured in the DULBECCO-modified eagle medium (DMEM; manufactured by SIGMA Co., Ltd.) containing 10% fetal calf serum, and cultured in the presence of 1 mg/ml G418 (Merck Co.) to establish G418 resistant stable clone (U251/1-8 cell).
It was confirmed that U251/1-8 cell secreted PLAP under low oxygen (2% O2 incubator) in the same manner as in the report (Cell. Mol. Biol. Res. 40, 35-39, 1994) and was a reporter system reflecting the transcription from VEGF promoter. The screening of the compound suppressing VEGF production which was induced by low oxygen stimulation was carried out below using the clone.
In order to remove the influence of alkaline phosphates in serum, U251/1-8 cell was rinsed twice with the adequate amount of PBS (Phosphate buffered saline), diluted in the DMEM medium containing 10% of serum in which alkaline phosphates was inactivated by the treatment of 60° C. for 20 min., and dispensed in 96-well plates by 4×10^4 cells/180 μl.
After culturing at 37° C. overnight in a CO2 incubator (5% CO2), 20 μL of the above-mentioned incubation solution containing the test compound diluted with 3-fold succession was added, and then they were incubated in a low oxygen ([…]) incubator for 18 hours. With respect to the PLAP activity in the culture supernatants, 10 μl of the supernatants was added to 50 μl of 0.28 M Na2CO3—NaHCO3 buffer solution (pH 10.0, 8.0 mM MgSO4), and finally 50 μl of alkaline phosphatase substrate (LUMISTEIN, Genomescience Co.) was added. After reacting for one hour, the alkaline phosphatase activity of the PLAP was measured by detecting the chemical luminescence by a micro plate reader (Perkin-Elmer Co.).
The PLAP activity under usual oxygen was set as 0%, the PLAP activity of cell which was treated under low oxygen was set as 100%, and the concentration suppressing the PLAP activity by 50% was set as the IC50 value of PLAP.

Compound	IC50 [nM]
CCC(OC(N)=O)C(C)C1OC1CC(C)/C=C/C=C(\C)C1OC(=O)CC(O)CCC(C)(O)C(OC(C)=O)/C=C/C1C (stereo not shown) [B35-2, (8E,12E,14E)-7-acetoxy-21-carbamoyloxy-3,6-dihydroxy-6,10,12,16,20-pentamethyl-18,19-epoxytricosa-8,12,14-trien-11-olide]	0.5 to 100
CCC(O)C(C)C1OC1CC(C)/C=C/C=C(\C)C1OC(=O)CC(OC(=O)c2ccccc2)CCC(C)(O)C(OC(C)=O)/C=C/C1C (stereo not shown) [B30-2, (8E,12E,14E)-7-acetoxy-3-benzoloxy-6,21-dihydroxy-6,10,12,16,20-pentamethyl-18,19-epoxytricosa-8,12,14-trien-11-olide]	0.5 to 100
CCC(OC(=O)N1CCN(C)CC1)C(C)C1OC1CC(C)/C=C/C=C(\C)C1OC(=O)CC(O)CCC(C)(O)C(OC(C)=O)/C=C/C1C (stereo not shown) [B36-2, (8E,12E,14E)-7-acetoxy-21-((4-methylpiperazin-1-yl)carbonyl)oxy-3,6-dihydroxy-6,10,12,16,20-pentamethyl-18,19-epoxytricosa-8,12,14-trien-11-olide]	0.5 to 100
CCC(F)C(C)C1OC1CC(C)/C=C/C=C(\C)C1OC(=O)CC(O)CCC(C)(O)C(OC(C)=O)/C=C/C1C (stereo not shown) [B18-1, (8E,12E,14E)-7-Acetoxy-21-fluoro-3,6-dihydroxy-6,10,12,16,20-pentamethyl-18,19-epoxytricosa-8,12,14-trien-11-olide]	0.5 to 100
CCC(O)C(C)C1OC1CC(C)/C=C/C=C(\C)C1OC(=O)CC(O)CCC(C)(OC)C(OC(C)=O)/C=C/C1C (stereo not shown) [B8-5, (8E,12E,14E)-7-acetoxy-3,21-dihydroxy-6-methoxy-6,10,12,16,20-pentamethyl-18,19-epoxytricosa-8,12,14-trien-11-olide]	0.5 to 100
CCC(OC(C)=O)C(C)C1OC1CC(C)/C=C/C=C(\C)C1OC(=O)CC(O)CCC(C)(O)C(OC(C)=O)/C=C/C1C (stereo not shown) [B20-2, (8E,12E,14E)-7,21-diacetoxy-3,6-dihydroxy-6,10,12,16,20-pentamethyl-18,19-epoxytricosa-8,12,14-trien-11-olide]	0.5 to 100
CCC(O)C(C)C1OC1CC(C)/C=C/C=C(\C)C1OC(=O)CC(O)CCC(C)(O)C(OC(=O)N2CCN(CCO)CC2)/C=C/C1C (stereo not shown) [B66, (8E,12E,14E)-3,6,21-Trihydroxy-6,10,12,16,20-pentamethyl-7-((4-(2-hydroxyethyl)piperazin-1-yl)carbonyl)oxy-18,19-epoxytricosa-8,12,14-trien-11-olide]	0.5 to 100
CCC(O)C(C)C1OC1CC(C)/C=C/C=C(\C)C1OC(=O)CC(O)CCC(C)(O)C(OC(N)=O)/C=C/C1C (stereo not shown) [B44, (8E,12E,14E)-7-Carbamoyloxy-3,6,21-trihydroxy-6,10,12,16,20-pentamethyl-18,19-epoxytricosa-8,12,14-trien-11-olide]	0.5 to 100
CCC(OC(N)=O)C(C)C1OC1CC(C)/C=C/C=C(\C)C1OC(=O)CC(OC(N)=O)CCC(C)(O)C(OC(C)=O)/C=C/C1C (stereo not shown) [B33-1, (8E,12E,14E)-7-Acetoxy-3,21-dicarbamoyloxy-6-hydroxy-6,10,12,16,20-pentamethyl-18,19-epoxytricosa-8,12,14-trien-11-olide]	0.5 to 100
CCC(O)C(C)C1OC1CC(C)/C=C/C=C(\C)C1OC(=O)CC(O)CCC(C)(O)C(OC(=O)N2CC(C)NC(C)C2)/C=C/C1C (stereo not shown) [B81, (8E,12E,14E)-3,6,21-Trihydroxy-6,10,12,16,20-pentamethyl-7-((3,5-dimethylpiperazin-1-yl)carbonyl)oxy-18,19-epoxytricosa-8,12,14-trien-11-olide]	0.5 to 100
CCOCC(=O)OCC(=O)OC1CCC(C)(O)C(OC(C)=O)/C=C/C(C)C(/C(C)=C/C=C/C(C)CC2OC2C(C)C(O)CC)OC(=O)C1 (stereo not shown) [B26]	0.5 to 100
CCC(OC(=O)CN(C)C)C(C)C1OC1CC(C)/C=C/C=C(\C)C1OC(=O)CC(O)CCC(C)(O)C(OC(C)=O)/C=C/C1C (stereo not shown) [B28, (8E,12E,14E)-7-Acetoxy-3,6-dihydroxy-6,10,12,16,20-pentamethyl-21-dimethylaminoacetoxy-18,19-epoxytricosa-8,12,14-trien-11-olide]	0.5 to 100
CCC(O)C(C)C(Cl)C(O)CC(C)/C=C/C=C(\C)C1OC(=O)CC(O)CCC(C)(O)C(OC(C)=O)/C=C/C1C (stereo not shown) [B1-1, (8E,12E,14E)-7-Acetoxy-19-chloro-3,6,18,21-tetrahydroxy-6,10,12,16,20-pentamethyltricosa-8,12,14-trien-11-olide]	0.5 to 100
CCC(O)C(C)C1OC1CC(C)/C=C/C=C(\C)C1OC(=O)CC(O)CCC(C)(O)C(OC(=O)N2CCN(CC)CC2)/C=C/C1C (stereo not shown) [B65, (8E,12E,14E)-3,6,21-Trihydroxy-6,10,12,16,20-pentamethyl-7-((4-ethylpiperazin-1-yl)carbonyl)oxy-18,19-epoxytricosa-8,12,14-trien-11-olide]	0.5 to 100
CCOCC(=O)OC(CC)C(C)C1OC1CC(C)/C=C/C=C(\C)C1OC(=O)CC(O)CCC(C)(O)C(OC(C)=O)/C=C/C1C (stereo not shown) [B25, (8E,12E,14E)-7-Acetoxy-21-ethoxyacetoxy-3,6-dihydroxy-6,10,12,16,20-pentamethyl-18,19-epoxytricosa-8,12,14-trien-11-olide]	0.5 to 100
CCC(O)C(C)C1OC1CC(C)/C=C/C=C(\C)C1OC(=O)CC(O)CCC(C)(O)C(OC(=O)CN2CCOCC2)/C=C/C1C (stereo not shown) [B40, (8E,12E,14E)-3,6,21-Trihydroxy-6,10,12,16,20-pentamethyl-7-(morpholin-4-yl)acetoxy-18,19-epoxytricosa-8,12,14-trien-11-olide]	0.5 to 100
CCOCC(=O)OC1CCC(C)(O)C(OC(C)=O)/C=C/C(C)C(/C(C)=C/C=C/C(C)CC2OC2C(C)C(O)CC)OC(=O)C1 (stereo not shown) [B24, (8E,12E,14E)-7-Acetoxy-3-ethoxyacetoxy-6,21-dihydroxy-6,10,12,16,20-pentamethyl-18,19-epoxytricosa-8,12,14-trien-11-olide]	0.5 to 100
CCC(O)C(C)C1OC1CC(C)/C=C/C=C(\C)C1OC(=O)CC(O)CCC(C)(O)C(OC(=O)NCCN(C)C)/C=C/C1C (stereo not shown) [B54, (8E,12E,14E)-7-(N-(2-Dimethylamino)ethyl)carbamoyloxy-3,6,21-trihydroxy-6,10,12,16,20-pentamethyl-18,19-epoxytricosa-8,12,14-trien-11-olide]	0.5 to 100
CCC(O)C(C)C1OC1CC(C)/C=C/C=C(\C)C1OC(=O)CC(O)CCC(C)(O)C(OC(=O)CCl)/C=C/C1C (stereo not shown) [B39, (8E,12E,14E)-7-Chloroacetoxy-3,6,21-trihydroxy-6,10,12,16,20-pentamethyl-18,19-epoxytricosa-8,12,14-trien-11-olide]	0.5 to 100
CCC(OS(C)(=O)=O)C(C)C1OC1CC(C)/C=C/C=C(\C)C1OC(=O)CC(O)CCC(C)(O)C(OC(C)=O)/C=C/C1C (stereo not shown) [B16-1, (8E,12E,14E)-7-Acetoxy-3,6-dihydroxy-21-methanesulfonyloxy-6,10,12,16,20-pentamethyl-18,19-epoxytricosa-8,12,14-trien-11-olide]	0.5 to 100
CCC(O)C(C)C1OC1CC(C)/C=C/C=C(\C)C1OC(=O)CC(O)CCC(C)(O)C(OC(=O)N(C)C)/C=C/C1C (stereo not shown) [B46, (8E,12E,14E)-3,6,21-Trihydroxy-6,10,12,16,20-pentamethyl-7-N,N-dimethylcarbamoyloxy-18,19-epoxytricosa-8,12,14-trien-11-olide]	0.5 to 100
CCC(O)C(C)C(OC(C)=O)C(Cl)CC(C)/C=C/C=C(\C)C1OC(=O)CC(OC(C)=O)CCC(C)(O)C(OC(C)=O)/C=C/C1C (stereo not shown) [B21-3, (8E,12E,14E)-3,7,19-triacetoxy-18-chloro-6,21-dihydroxy-6,10,12,16,20-pentamethyltricosa-8,12,14-trien-11-olide]	0.5 to 100
CCC(OC)C(C)C1OC1CC(C)/C=C/C=C(\C)C1OC(=O)CC(O)CCC(C)(OC)C(OC(C)=O)/C=C/C1C (stereo not shown) [B8-2, (8E,12E,14E)-7-acetoxy-3-hydroxy-6,21-dimethoxy-6,10,12,16,20-pentamethyl-18,19-epoxytricosa-8,12,14-trien-11-olide]	0.5 to 100
CCC(OC(=O)c1cccnc1)C(C)C1OC1CC(C)/C=C/C=C(\C)C1OC(=O)CC(O)CCC(C)(O)C(OC(C)=O)/C=C/C1C (stereo not shown) [B29, (8E,12E,14E)-7-Acetoxy-3-6-dihydroxy-6,10,12,16,20-pentamethyl-21-nicotinoxy-18,19-epoxytricosa-8,12,14-trien-11-olide]	0.5 to 100

Same assay, conditions: Homo sapiens, U-251; U251/1-8 cell, PLAP activity, low oxygen 18 hours; read-out: VEGF transcription suppressing activity (IC50: nM)

Compound	IC50 [nM]
CCC(OC(C)=O)C(C)C1OC1CC(C)/C=C/C=C(\C)C1OC(=O)CC(O)CCC(C)(O)C(OC(C)=O)/C=C/C1C (stereo not shown) [B20-2, (8E,12E,14E)-7,21-diacetoxy-3,6-dihydroxy-6,10,12,16,20-pentamethyl-18,19-epoxytricosa-8,12,14-trien-11-olide]	1.6
